From ChEMBL document CHEMBL4130470, “Lipid lowering agents of natural origin: An account of some promising chemotypes” (2017) come the findings set out here.

Experiment [1] is filed under the species Homo sapiens. As to the kind of experiment: Reduction in LDL-C level in patient with heterozygous familial hypercholesterolaemia at 40 mg/day. The class given is functional. On the set-up: scale not given: the % may be the effect or the level left.
The species named for experiment [2] is Homo sapiens. Kind of experiment: Increase in HDL-C level in patient with heterozygous familial hypercholesterolaemia at 40 mg/day. It counts as functional.
The species named for experiment [3] is Homo sapiens. Kind of experiment: Reduction in triglyceride level in patient with heterozygous familial hypercholesterolaemia at 40 mg/day. The class given is functional. Also noted: scale not given: the % may be the effect or the level left.
Experiment [4] deals with Rattus norvegicus. As to the kind of experiment: Hypercholesterolemic activity in rat assessed as reduction in triglyceride level at 4 to 25 mg/kg/day. It counts as functional. Also noted: scale not given: the % may be the effect or the level left.
The subject of experiment [5] is Rattus norvegicus. Kind of experiment: Hypercholesterolemic activity in rat assessed as reduction in cholesterol level at 80 mg/kg/day for 8 days. The class given is functional. On the set-up: scale not given: the % may be the effect or the level left.
In experiment [6] the test system is Rattus norvegicus. Kind of experiment: Hypercholesterolemic activity in male rat assessed as reduction in triglyceride level at 80 mg/kg/day for 7 days. Also noted: scale not given: the % may be the effect or the level left. It counts as functional.
Experiment [7] deals with Rattus norvegicus. Kind of experiment: Hypercholesterolemic activity in rat assessed as reduction in plasma cholesterol level at 4 to 25 mg/kg/day. On the set-up: scale not given: the % may be the effect or the level left. The class given is functional.
Experiment [8] deals with Rattus norvegicus. Kind of experiment: Hypercholesterolemic activity in male rat assessed as reduction in cholesterol level at 80 mg/kg/day for 7 days. The class given is functional. On the set-up: scale not given: the % may be the effect or the level left.
The subject of experiment [9] is Homo sapiens. Kind of experiment: Reduction in total cholesterol level in hypercholesterolemic patient dosed for 3 months. The class given is functional. Also noted: scale not given: the % may be the effect or the level left.
For experiment [10], the system named is Hamster. As to the kind of experiment: Reduction in serum total cholesterol level hyperlipidemic hamster relative to untreated control. The class given is functional, Cricetinae. On the set-up: scale not given: the % may be the effect or the level left.
Experiment [11] has as its system Homo sapiens. Kind of experiment: Reduction in LDL-C level in hypercholesterolemic patient dosed for 3 months. It counts as functional. On the set-up: scale not given: the % may be the effect or the level left.
The subject of experiment [12] is Hamster. As to the kind of experiment: Increase in hepatic LDLR protein hyperlipidemic hamster relative to untreated control. The class given is functional, Cricetinae.
Experiment [13] concerns Homo sapiens. Kind of experiment: Reduction in triglyceride level in hypercholesterolemic patient dosed for 3 months. The class given is functional. On the set-up: scale not given: the % may be the effect or the level left.
Experiment [14] concerns Hamster. As to the kind of experiment: Reduction in serum LDL-C level hyperlipidemic hamster relative to untreated control. It counts as functional, Cricetinae. Also noted: scale not given: the % may be the effect or the level left.
In experiment [15] the test system is Hamster. Kind of experiment: Increase in hepatic LDLR mRNA hyperlipidemic hamster relative to untreated control. It counts as functional, Cricetinae.
For experiment [16], the species on record is Sus scrofa. As to the kind of experiment: Reduction in total cholesterol in swine with metabolic syndrome and myocardial ischemia. It counts as functional. Also noted: scale not given: the % may be the effect or the level left.
The species entered for experiment [17] is Sus scrofa. Kind of experiment: Reduction in LDL in swine with metabolic syndrome and myocardial ischemia. It counts as functional. On the set-up: scale not given: the % may be the effect or the level left.
For experiment [18], the species on record is Homo sapiens. Kind of experiment: Reduction in triglyceride level in patient with moderate hypercholesterolemia at 20 to 80 mg/day. Also noted: scale not given: the % may be the effect or the level left. It counts as functional.
For experiment [19], the species on record is Homo sapiens. As to the kind of experiment: Increase in HDL-C level in patient with moderate hypercholesterolemia at 20 to 80 mg/day. It counts as functional.
The species named for experiment [20] is Homo sapiens. As to the kind of experiment: Reduction in total cholesterol level in patient with moderate hypercholesterolemia at 20 to 80 mg/day. Also noted: scale not given: the % may be the effect or the level left. The class given is functional.
For experiment [21], the species on record is Homo sapiens. As to the kind of experiment: Reduction in LDL-C level in patient with moderate hypercholesterolemia at 20 to 80 mg/day. It counts as functional. On the set-up: scale not given: the % may be the effect or the level left.
In experiment [22] the test system is Hamster. As to the kind of experiment: Antidyslipidemic activity in HFD-fed dyslipidemic hamster assessed as reduction in serum triglyceride level at 50 mg/kg. On the set-up: scale not given: the % may be the effect or the level left. It counts as functional, Cricetinae.
For experiment [23], the system named is Hamster. Kind of experiment: Antidyslipidemic activity in HFD-fed dyslipidemic hamster assessed as reduction in serum total cholesterol at 50 mg/kg. The class given is functional, Cricetinae. Also noted: scale not given: the % may be the effect or the level left.
For experiment [24], the system named is Hamster. Kind of experiment: Antidyslipidemic activity in HFD-fed dyslipidemic hamster assessed as HDLC/total cholesterol at 50 mg/kg. The class given is functional, Cricetinae.
The subject of experiment [25] is Hamster. As to the kind of experiment: Antidyslipidemic activity in HFD-fed dyslipidemic hamster assessed as reduction in serum glycerol at 50 mg/kg. It counts as functional, Cricetinae. On the set-up: scale not given: the % may be the effect or the level left.
The species entered for experiment [26] is Homo sapiens. Kind of experiment: Reduction in total cholesterol in human at 500 mg/day. The class given is functional. On the set-up: scale not given: the % may be the effect or the level left.
The species entered for experiment [27] is Homo sapiens. As to the kind of experiment: Increase in HDL-C in human at 500 mg/day. The class given is functional.
For experiment [28], the species on record is Homo sapiens. As to the kind of experiment: Reduction in serum lipid peroxides in human at 500 mg/day. Also noted: scale not given: the % may be the effect or the level left. The class given is functional.
For experiment [29], the system named is Rattus norvegicus. Kind of experiment: Increase in HDL-C level in rat dosed for 7 days. The class given is functional.
Experiment [30] relates to Rattus norvegicus. Kind of experiment: Reduction in LDL-C level in rat dosed for 7 days. The class given is functional. On the set-up: scale not given: the % may be the effect or the level left.

On to `CCC(C)(C)C(=O)O[C@H]1C[C@@H](C)C=C2C=C[C@H](C)[C@H](CC[C@@H]3C[C@@H](O)CC(=O)O3)[C@H]21` [SIMVASTATIN], for which the Activity is 43 - 45% in the experiment filed under Homo sapiens [1], 10 - 13% in the experiment listed under Homo sapiens [2] and 21 - 31% in the experiment listed under Homo sapiens [3].
For `C/C=C/c1cc(OC)c(OC)cc1OC` [TRANS-ASARONE], the Activity in the experiment with Rattus norvegicus [4] was 40 - 60%; in the experiment on Rattus norvegicus [5], 38%; with Rattus norvegicus [6], 42%; in the experiment with Rattus norvegicus [7], 40 - 60%; in the experiment on Rattus norvegicus [8] it was 57%.
Regarding `COc1ccc2cc3[n+](cc2c1OC)CCc1cc2c(cc1-3)OCO2` [BERBERINE], the Activity with Homo sapiens [9] amounted to 29%; with Hamster [10], 40%; with Homo sapiens [11] it was 25%; in the experiment with Homo sapiens [13] it was 35%; with Hamster [14], 42%. The “fold change (FC)” value in the experiment with Hamster [12] was 2.6; in the experiment with Hamster [15], 3.5.
Regarding `Oc1ccc(/C=C/c2cc(O)cc(O)c2)cc1` [RESVERATROL], the Activity in the experiment filed under Sus scrofa [16] is on record as 33%; in the experiment listed under Sus scrofa [17], 30%.
As for `CC[C@H](C)C(=O)O[C@H]1C[C@@H](C)C=C2C=C[C@H](C)[C@H](CC[C@@H]3C[C@@H](O)CC(=O)O3)[C@H]21` [LOVASTATIN], the Activity in the experiment filed under Homo sapiens [18] is listed as 10 - 19%; in the experiment filed under Homo sapiens [19], 6.6 - 9.5%; in the experiment listed under Homo sapiens [20] it was 17 - 29%; in the experiment filed under Homo sapiens [21], 24 - 40%.
As for `CC(C)=CCC/C(C)=C/CC/C(C)=C/CC/C(C)=C\CC/C(C)=C\CC/C(C)=C\CC/C(C)=C\CC/C(C)=C\CC/C(C)=C\CC/C(C)=C\CC/C(C)=C\CC/C(C)=C\CO`, the Activity in the experiment on Hamster [22] is 42%; with Hamster [23] it was 25%; in the experiment with Hamster [24], 26%; in the experiment on Hamster [25], 12%.
`COc1cc(/C=C/C(=O)CC(=O)/C=C/c2ccc(O)c(OC)c2)ccc1O` [CURCUMIN]: the Activity in the experiment listed under Homo sapiens [26] came to 12%; in the experiment filed under Homo sapiens [27], 29%; in the experiment listed under Homo sapiens [28], 33%.
Consider `C/C=C/c1cc(OC)c(OC)c(OC)c1`, for which the values for the Activity in the experiment on Rattus norvegicus [29] and with Rattus norvegicus [30] were 56% and 47%, respectively.
